Reference: patent publication US11319315B2, “Cyclohexyl acid triazole azoles as LPA antagonists” (BRISTOL-MYERS SQUIBB COMPANY, priority 2017, dated 2022)
Where a name gives a salt, the structure may show the parent alone. Read-outs that look alike come from different tables or passages of the source.

Target: T1, human LPA1 (Homo sapiens, UniProt Q92633)
T1 construct: expressed in transfected cells; host or cells: Chinese hamster ovary (CHO) cells
Test: LPA1 functional antagonist assay (LPA-induced calcium flux in CHO cells overexpressing human LPA1)
Assay type: cell-based
Details: read-out: hLPA1 IC50
Experimental: The effectiveness of compounds of the present invention as LPA1 inhibitors can be determined in an LPA1 functional antagonist assay as follows:
Chinese hamster ovary cells overexpressing human LPA1 were plated overnight (15,000 cells/well) in poly-D-lysine coated 384-well microplates (Greiner bio-one, Cat #781946) in DMEM/F12 medium (Gibco, Cat #11039). Following overnight culture, cells were loaded with calcium indicator dye (AAT Bioquest Inc, Cat #34601) for 30 minutes at 37° C. The cells were then equilibrated to room temperature for 30 minutes before the assay. Test compounds solubilized in DMSO were transferred to 384 well non-binding surface plates (Corning, Cat #3575) using the Labcyte Echo acoustic dispense and diluted with assay buffer [IX HBSS with calcium/magnesium (Gibco Cat #14025-092), 20 mM HEPES (Gibco Cat #15630-080) and 0.1% fatty acid free BSA (Sigma Cat #A9205)] to a final concentration of 0.5% DMSO. Diluted compounds were added to the cells by FDSS6000 (Hamamatsu) at final concentrations ranging from 0.08 nM to 5 μM. and were then incubated for 20 min at room temperature at which time LPA (Avanti Polar Lipids Cat #857130C) was added at final concentrations of 10 nM to stimulate the cells. The compound IC50 value was defined as the concentration of test compound which inhibited 50% of the calcium flux induced by LPA alone. IC50 values were determined by fitting data to a 4-parameter logistic equation (GraphPad Prism, San Diego Calif.).

[1] = inhibition of calcium flux induced by 10 nM LPA, CHO cells overexpressing human LPA1

T1 sequence (Q92633 whole entry): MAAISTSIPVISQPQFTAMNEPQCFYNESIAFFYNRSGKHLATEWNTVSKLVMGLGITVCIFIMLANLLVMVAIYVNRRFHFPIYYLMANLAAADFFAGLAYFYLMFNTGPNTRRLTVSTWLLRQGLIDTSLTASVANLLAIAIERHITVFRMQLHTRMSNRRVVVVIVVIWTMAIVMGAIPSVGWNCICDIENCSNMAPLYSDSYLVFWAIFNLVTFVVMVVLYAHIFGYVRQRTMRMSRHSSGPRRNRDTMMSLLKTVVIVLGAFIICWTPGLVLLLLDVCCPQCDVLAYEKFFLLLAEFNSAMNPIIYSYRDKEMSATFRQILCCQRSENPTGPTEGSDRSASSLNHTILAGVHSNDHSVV

IC50 [1]	IC50	SMILES
435 nM		Cc1nc(-c2nnn(C)c2CNc2cn(CC(C)C)nn2)ccc1O[C@H]1CCC[C@H](C(=O)O)C1 [Example 23, (1 S,3 S)-3-((6-(5-(((1-isobutyl-1H-1,2,3-triazol-4-yl)amino)methyl)-1-methyl-1H-1,2,3-triazol-4-yl)-2-methylpyridin-3-yl)oxy)cyclohexane-1-carboxylic acid]
627 nM		Cc1nc(-c2nnn(C)c2CNc2cc(C(C)C)nn2C)ccc1O[C@H]1CCC[C@H](C(=O)O)C1 [Example 125]
	43 nM	Cc1nc(-c2nnn(C)c2CNc2nnn(CC(C)C)n2)ccc1O[C@H]1CCC[C@H](C(=O)O)C1 [Example 388, (1S,3S)-3-((6-(5-(((2-isobutyl-2H-tetrazol-5-yl)amino)methyl)-1-methyl-1H-1,2,3-triazol-4-yl)-2-methylpyridin-3-yl)oxy)cyclo-hexane-1-carboxylic acid]
745 nM		Cc1nc(-c2nnn(C)c2CNc2nc(C(C)C)cs2)ccc1O[C@H]1CCC[C@H](C(=O)O)C1 [Example 12]
	92 nM	Cc1nc(-c2nnn(C)c2Cc2nnn(CC3CC3)n2)ccc1O[C@H]1CCC[C@H](C(=O)O)C1 [Example 360, (1S,3S)-3-((6-(5-((2-(cyclopropyl-methyl)-2H-tetrazol-5-yl)methyl)-1-methyl-1H-1,2,3-triazol-4-yl)-2-methylpyridin-3-yl)oxy)cyclo-hexane-1-carboxylic acid]
800 nM		CSc1nnn(Cc2c(-c3ccc(O[C@H]4CCC[C@H](C(=O)O)C4)c(C)n3)nnn2C)n1 [Example 353, (1S,3S)-3-{[2-methyl-6-(1-methyl-5-{[5-(methylsulfanyl)-2H-1,2,3,4-tetrazol-2-yl]methyl}-1H-1,2,3-triazol-4-yl)pyridin-3-yl]oxy}cyclohexane-1-carboxylic acid]
125 nM		CCCc1nnnn1Cc1c(-c2ccc(O[C@H]3CCC[C@H](C(=O)O)C3)c(C)n2)nnn1C [Example 114]
63 nM		CCCOCc1nnn(Cc2c(-c3ccc(O[C@H]4CCC[C@H](C(=O)O)C4)c(C)n3)nnn2C)n1 [Example 302, (1S,3S)-3-{[2-methyl-6-(1-methyl-5-{[5-(propoxymethyl)-2H-1,2,3,4-tetrazol-2-yl]methyl}-1H-1,2,3-triazol-4-yl)pyridin-3-yl]oxy}cyclohexane-1-carboxylic acid]
20 nM		Cc1nc(-c2nnn(C)c2COc2nnn(CC(C)C)n2)ccc1O[C@H]1CCC[C@H](C(=O)O)C1 [Example 136, (1S,3S)-3-((6-(5-(((2-Isobutyl-2H-tetrazol-5-yl)oxy)methyl)-1-methyl-1H-1,2,3-triazol-4-yl)-2-methylpyridin-3-yl)oxy)cyclohexane-1-carboxylic acid]
414 nM		CCc1nnn(Cc2c(-c3ccc(O[C@H]4CCC[C@H](C(=O)O)C4)c(C)n3)nnn2C)n1 [Example 318, (1S,3S)-3-((6-(5-((5-ethyl-2H-tetrazol-2-yl)methyl)-1-methyl-1H-1,2,3-triazol-4-yl)-2-methylpyridin-3-yl)oxy)cyclo-hexane-1-carboxylic acid]
821 nM		Cc1nc(-c2nnn(C)c2Cn2cc(C(C)C)nn2)ccc1O[C@H]1CCC[C@H](C(=O)O)C1 [Example 82]

Further lines, the molecule ahead of its results:

SMILES	IC50 [1]	IC50
Cc1nc(-c2nnn(C)c2Cc2noc(CCC3CC3)n2)ccc1O[C@H]1CCC[C@H](C(=O)O)C1 [Example 231, (1S,3S)-3-((6-(5-((5-(2-cyclopropylethyl)-1,2,4-oxadiazol-3-yl)methyl)-1-methyl-1H-1,2,3-triazol-4-yl)-2-methylpyridin-3-yl)oxy)cyclohexane-1-carboxylic acid]	15 nM	
Cn1nnc(-c2ncc(O[C@H]3CCC[C@H](C(=O)O)C3)cc2F)c1CNc1noc(CCC2CC2)n1 [Example 409, (1S,3S)-3-((6-(5-(((5-(2-cyclopropylethyl)-1,2,4-oxadiazol-3-yl)amino)methyl)-1-methyl-1H-1,2,3-triazol-4-yl)-5-fluoropyridin-3-yl)oxy)cyclohexane-1-carboxylic acid]		1920 nM
CCc1nc(-c2nnn(C)c2Cn2cc(C(C)C)nn2)ccc1O[C@H]1CCC[C@H](C(=O)O)C1 [Example 371, (1S,3S)-3-((2-ethyl-6-(5-((4-isopropyl-1H-1,2,3-triazol-1-yl)methyl)-1-methyl-1H-1,2,3-triazol-4-yl)pyridin-3-yl)oxy)cyclohexane-1-carboxylic acid]		1540 nM
CCCCc1cn(Cc2c(-c3ccc(O[C@H]4CCC[C@H](C(=O)O)C4)c(CC)n3)nnn2C)nn1 [Example 96]	9 nM	
Cc1nc(-c2nnn(C)c2CNc2nc(-c3ccccc3)c(F)s2)ccc1O[C@H]1CCC[C@H](C(=O)O)C1 [Example 21, (1 S,3 S)-3-((6-(5-(((5-fluoro-4-phenylthiazol-2-yl)amino)methyl)-1-methyl-1H-1,2,3-triazol-4-yl)-2-methylpyridin-3-yl)oxy)cyclohexane-1-carboxylic acid]	18 nM	
Cc1nc(-c2nnn(C)c2CNc2nsc(-c3ccccc3)n2)ccc1O[C@H]1CCC[C@H](C(=O)O)C1 [Example 6]	18 nM	
CCc1nc(-c2nnn(C)c2CNc2nc(C3CCC3)ns2)ccc1O[C@H]1CCC[C@H](C(=O)O)C1 [Example 396, (1S,3S)-3-((6-(5-(((3-cyclobutyl-1,2,4-thiadiazol-5-yl)amino)methyl)-1-methyl-1H-1,2,3-triazol-4-yl)-2-ethylpyridin-3-yl)oxy)cyclohexane-1-carboxylic acid]		33 nM
Cc1nc(-c2nnn(C)c2Cc2noc(CCC(C)C)n2)ccc1O[C@H]1CCC[C@H](C(=O)O)C1 [Example 229, (1S,3S)-3-((6-(5-((5-isopentyl-1,2,4-oxadiazol-3-yl)methyl)-1-methyl-1H-1,2,3-triazol-4-yl)-2-methylpyridin-3-yl)oxy)cyclohexane-1-carboxylic acid]	11 nM	
Cn1nnc(-c2ccc(O[C@H]3CCC[C@H](C(=O)O)C3)cn2)c1CNc1noc(CCCC(F)(F)F)n1 [Example 292, (1S,3S)-3-((6-(1-methyl-5-(((5-(4,4,4-trifluorobutyl)-1,2,4-oxadi-azol-3-yl)amino)methyl)-1H-1,2,3-triazol-4-yl)pyridin-3-yl)oxy)cyclohexane-1-carboxylic acid]	48.7 nM	
CCCOCc1nc(NCc2c(-c3ccc(O[C@H]4CCC[C@H](C(=O)O)C4)c(C)n3)nnn2C)no1 [Example 284, (1S,3S)-3-((2-methyl-6-(1-methyl-5-(((5-(propoxymethyl)-1,2,4-oxadi-azol-3-yl)amino)methyl)-1H-1,2,3-triazol-4-yl)pyridin-3-yl)oxy)cyclo-hexane-1-carboxylic acid, TFA salt]	24 nM	
Cc1nc(-c2nnn(C)c2Cn2cnnc2CC2CC2)ccc1O[C@H]1CCC[C@H](C(=O)O)C1 [Example 209]	2080 nM	
CCCCN(CCCC)c1nnn(Cc2c(-c3ccc(O[C@H]4CCC[C@H](C(=O)O)C4)c(C)n3)nnn2C)n1 [Example 363, (1S,3S)-3-((6-(5-((5-(dibutylamino)-2H-tetrazol-2-yl)methyl)-1-methyl-1H-1,2,3-triazol-4-yl)-2-methyl-pyridin-3-yl)oxy)cyclohexane-1-carboxylic acid]		229 nM
Cc1nc(-c2nnn(C)c2CNc2noc(CCCF)n2)ccc1O[C@H]1CCC[C@H](C(=O)O)C1 [Example 184]	74 nM	
Cc1nc(-c2nnn(C)c2Cn2nncc2COc2ccccc2)ccc1O[C@H]1CCC[C@H](C(=O)O)C1 [Example 84]	172 nM	
C=C1CC(c2nc(NCc3c(-c4ccc(O[C@H]5CCC[C@H](C(=O)O)C5)c(C)n4)nnn3C)no2)C1 [Example 203]	11.5 nM	
COCCCOc1nnn(Cc2c(-c3ccc(O[C@H]4CCC[C@H](C(=O)O)C4)c(C)n3)nnn2C)n1 [Example 404, (1S,3S)-3-{[6-(5-{[5-(3-methoxy-propoxy)-2H-1,2,3,4-tetrazol-2-yl]methyl}-1-methyl-1H-1,2,3-triazol-4-yl)-2-methylpyridin-3-yl]oxy}cyclohexane-1-carboxylic acid]		365 nM
Cc1nc(-c2nnn(C)c2CNc2nsc(Nc3ccccc3)n2)ccc1O[C@H]1CCC[C@H](C(=O)O)C1 [Example 121]	470 nM	
Cc1nc(-c2nnn(C)c2Cc2nc(CC3CC3)no2)ccc1O[C@H]1CCC[C@H](C(=O)O)C1 [Example 246, (1S,3S)-3-((6-(5-((3-(cyclopropyl-methyl)-1,2,4-oxadiazol-5-yl)methyl)-1-methyl-1H-1,2,3-triazol-4-yl)-2-methylpyridin-3-yl)oxy)cyclohexane-1-carboxylic acid]	40 nM	
Cc1nc(-c2nnn(C)c2CNc2nnc(CC3CC3)o2)ccc1O[C@H]1CCC[C@H](C(=O)O)C1 [Example 56]	136 nM	
Cc1nc(-c2nnn(C)c2CNc2cc(C(C)(C)C)on2)ccc1O[C@H]1CCC[C@H](C(=O)O)C1 [Example 169]	63 nM	
Cc1nc(-c2nnn(C)c2Cc2noc(CC3CC3)n2)ccc1O[C@H]1CCC[C@H](C(=O)O)C1 [Example 228, (1S,3S)-3-((6-(5-((5-(cyclopropylmethyl)-1,2,4-oxadiazol-3-yl)methyl)-1-methyl-1H-1,2,3-triazol-4-yl)-2-methylpyridin-3-yl)oxy)cyclohexane-1-carboxylic acid]	19 nM	
